# Measurements as given in ChEMBL document CHEMBL3885881, “DrugMatrix”.
# Species: Rattus norvegicus
# Test: DrugMatrix - Regimen: Daily Repeat
# Format: toxicity, organism-based, Sprague-Dawley
# Design: regimen Daily Repeat, gender Male, age 6-8 weeks
# Conditions: in vivo, po, 750 mg/kg, route oral GAVAGE, dose level High, vehicle .5 % CMC; for BASOPHIL / EOSINOPHIL / ERYTHROCYTE COUNT / HEMATOCRIT / HEMOGLOBIN / LEUKOCYTE COUNT / LYMPHOCYTE / MEAN CORPUSCULAR HEMOGLOBIN / MEAN CORPUSCULAR HEMOGLOBIN CONCENTRATION / MEAN CORPUSCULAR VOLUME / MONOCYTE / NEUTROPHIL / PLATELET COUNT: tissue Blood; for ALANINE AMINOTRANSFERASE / ALBUMIN / ALKALINE PHOSPHATASE / ASPARTATE AMINOTRANSFERASE / BLOOD UREA NITROGEN / CARBON DIOXIDE / CHLORIDE / CHOLESTEROL / CREATINE PHOSPHOKINASE / CREATININE / GLUCOSE / LACTATE DEHYDROGENASE / LIPASE / PHOSPHORUS / POTASSIUM / SODIUM / TOTAL BILIRUBIN / TOTAL PROTEIN / URIC ACID: tissue Plasma
smiles,measurement,setting,value
ClC(Cl)(Cl)C(Cl)(Cl)Cl [HEXACHLOROETHANE],BASOPHIL,"96 h, time 4 day",0.3%
same,EOSINOPHIL,"96 h, time 4 day",0.6%
same,ERYTHROCYTE COUNT,"96 h, time 4 day",7.16 x10E6/uL
same,HEMATOCRIT,"96 h, time 4 day",45.77%
same,HEMOGLOBIN,"96 h, time 4 day",14.9 G/DL
same,LEUKOCYTE COUNT,"96 h, time 4 day",12.35 x10E3/uL
same,LYMPHOCYTE,"96 h, time 4 day",79.87%
same,MEAN CORPUSCULAR HEMOGLOBIN,"96 h, time 4 day",20.77 pg
same,MEAN CORPUSCULAR HEMOGLOBIN CONCENTRATION,"96 h, time 4 day",32.5 G/DL
same,MEAN CORPUSCULAR VOLUME,"96 h, time 4 day",63.9 fL
same,MONOCYTE,"96 h, time 4 day",2.47%
same,NEUTROPHIL,"96 h, time 4 day",16.1%
same,PLATELET COUNT,"96 h, time 4 day",1434.33 x10E3/uL
same,ALANINE AMINOTRANSFERASE,"96 h, time 4 day",28 u/L
same,ALBUMIN,"96 h, time 4 day",3.87 G/DL
same,ALKALINE PHOSPHATASE,"96 h, time 4 day",292 u/L
same,ASPARTATE AMINOTRANSFERASE,"96 h, time 4 day",63.67 u/L
same,BLOOD UREA NITROGEN,"96 h, time 4 day",17.67 mg/dL
same,CARBON DIOXIDE,"96 h, time 4 day",21.67 mmol/L
same,CHLORIDE,"96 h, time 4 day",108.33 MEQ/L
same,CHOLESTEROL,"96 h, time 4 day",74.67 mg/dL
same,CREATINE PHOSPHOKINASE,"96 h, time 4 day",242 u/L
same,CREATININE,"96 h, time 4 day",0.43 mg/dL
same,GLUCOSE,"96 h, time 4 day",177 mg/dL
same,LACTATE DEHYDROGENASE,"96 h, time 4 day",82 u/L
same,LIPASE,"96 h, time 4 day",19 u/L
same,PHOSPHORUS,"96 h, time 4 day",11.57 mg/dL
same,POTASSIUM,"96 h, time 4 day",5.67 MEQ/L
same,SODIUM,"96 h, time 4 day",150 MEQ/L
same,TOTAL BILIRUBIN,"96 h, time 4 day",0.23 mg/dL
same,TOTAL PROTEIN,"96 h, time 4 day",6.5 G/DL
same,URIC ACID,"96 h, time 4 day",1.17 mg/dL
same,BASOPHIL,"[…], time 6 day",0.4%
same,EOSINOPHIL,"[…], time 6 day",0.57%
same,ERYTHROCYTE COUNT,"[…], time 6 day",7.65 x10E6/uL
same,HEMATOCRIT,"[…], time 6 day",47.3%
same,HEMOGLOBIN,"[…], time 6 day",15.03 G/DL
same,LEUKOCYTE COUNT,"[…], time 6 day",11.09 x10E3/uL
same,LYMPHOCYTE,"[…], time 6 day",86.53%
same,MEAN CORPUSCULAR HEMOGLOBIN,"[…], time 6 day",19.67 pg
same,MEAN CORPUSCULAR HEMOGLOBIN CONCENTRATION,"[…], time 6 day",31.77 G/DL
same,MEAN CORPUSCULAR VOLUME,"[…], time 6 day",61.9 fL
same,MONOCYTE,"[…], time 6 day",1.6%
same,NEUTROPHIL,"[…], time 6 day",10.43%
same,PLATELET COUNT,"[…], time 6 day",1317.33 x10E3/uL
same,BASOPHIL,"[…], time 14 day",0.38%
same,EOSINOPHIL,"[…], time 14 day",1.98%
same,ERYTHROCYTE COUNT,"[…], time 14 day",8.11 x10E6/uL
same,HEMATOCRIT,"[…], time 14 day",53.9%
same,HEMOGLOBIN,"[…], time 14 day",15.78 G/DL
same,LEUKOCYTE COUNT,"[…], time 14 day",13.93 x10E3/uL
same,LYMPHOCYTE,"[…], time 14 day",77.98%
same,MEAN CORPUSCULAR HEMOGLOBIN,"[…], time 14 day",19.5 pg
same,MEAN CORPUSCULAR HEMOGLOBIN CONCENTRATION,"[…], time 14 day",29.3 G/DL
same,MEAN CORPUSCULAR VOLUME,"[…], time 14 day",66.52 fL
same,MONOCYTE,"[…], time 14 day",1.82%
same,NEUTROPHIL,"[…], time 14 day",17.32%
same,PLATELET COUNT,"[…], time 14 day",1210 x10E3/uL
same,ALANINE AMINOTRANSFERASE,"[…], time 6 day",38.33 u/L
same,ALBUMIN,"[…], time 6 day",3.9 G/DL
same,ALKALINE PHOSPHATASE,"[…], time 6 day",248.33 u/L
same,ASPARTATE AMINOTRANSFERASE,"[…], time 6 day",85.33 u/L
same,BLOOD UREA NITROGEN,"[…], time 6 day",17 mg/dL
same,CARBON DIOXIDE,"[…], time 6 day",24 mmol/L
same,CHLORIDE,"[…], time 6 day",109.67 MEQ/L
same,CHOLESTEROL,"[…], time 6 day",81 mg/dL
same,CREATINE PHOSPHOKINASE,"[…], time 6 day",545 u/L
same,CREATININE,"[…], time 6 day",0.33 mg/dL
same,GLUCOSE,"[…], time 6 day",171.67 mg/dL
same,LACTATE DEHYDROGENASE,"[…], time 6 day",134.33 u/L
same,LIPASE,"[…], time 6 day",4.67 u/L
same,PHOSPHORUS,"[…], time 6 day",12.5 mg/dL
same,POTASSIUM,"[…], time 6 day",7.1 MEQ/L
same,SODIUM,"[…], time 6 day",619.67 MEQ/L
same,TOTAL BILIRUBIN,"[…], time 6 day",0.23 mg/dL
same,TOTAL PROTEIN,"[…], time 6 day",6.6 G/DL
same,URIC ACID,"[…], time 6 day",1.57 mg/dL
same,ALANINE AMINOTRANSFERASE,"[…], time 14 day",49.8 u/L
same,ALBUMIN,"[…], time 14 day",4.38 G/DL
same,ALKALINE PHOSPHATASE,"[…], time 14 day",322.6 u/L
same,ASPARTATE AMINOTRANSFERASE,"[…], time 14 day",75 u/L
same,BLOOD UREA NITROGEN,"[…], time 14 day",15.6 mg/dL
same,CARBON DIOXIDE,"[…], time 14 day",27.6 mmol/L
same,CHLORIDE,"[…], time 14 day",104.8 MEQ/L
same,CHOLESTEROL,"[…], time 14 day",84.4 mg/dL
same,CREATINE PHOSPHOKINASE,"[…], time 14 day",289.2 u/L
same,CREATININE,"[…], time 14 day",0.42 mg/dL
same,GLUCOSE,"[…], time 14 day",153.6 mg/dL
same,LACTATE DEHYDROGENASE,"[…], time 14 day",57.2 u/L
same,LIPASE,"[…], time 14 day",7.2 u/L
same,PHOSPHORUS,"[…], time 14 day",13.42 mg/dL
same,POTASSIUM,"[…], time 14 day",6.7 MEQ/L
same,SODIUM,"[…], time 14 day",151.4 MEQ/L
same,TOTAL BILIRUBIN,"[…], time 14 day",0.34 mg/dL
same,TOTAL PROTEIN,"[…], time 14 day",7.08 G/DL
same,URIC ACID,"[…], time 14 day",1.5 mg/dL
